# From publication PMC5736175, “Nicotinic alpha 7 receptor agonists EVP-6124 and BMS-933043, attenuate scopolamine-induced deficits in visuo-spatial paired associates learning” (PLoS ONE, 2017)
# “And” between values parts separate entries of the source, which are not always exact repeats. Equal values may be shown once. Where a name gives a salt, the structure may show the parent alone. Marks after values point to notes of the source that are not given here.
# Assays:
# [1] = test system: scopolamine-treated cynomolgus monkeys; experiment: Scopolamine-induced impairment of vsPAL task performance, treatment + scopolamine; format: in vivo, cynomolgus monkeys (Macaca Fasicularis); settings: for scopolamine impairment: difference between vehicle+vehicle and vehicle+scopolamine, % correct eventual: 4-stimuli condition; for Percent Correct on Initial Attempt (SEM), 2 stimuli / Percent Correct on Initial Attempt (SEM), 3 stimuli / Percent Correct on Initial Attempt (SEM), 4 stimuli: Vehicle + Scopolamine; for mean (cohen's d calculations): eventual correct, 4-stimuli
# Experimental: Doses cited refer to the free base form of the compounds. […] All drugs were administered intramuscularly (i.m.) in a dosing volume of 0.1–0.2 ml/kg.
# On days when compound testing occurred, approximately half the cohort received one dose and the remainder another dose of the same compound and therefore dose order was staggered between animals. With the exception of EVP-6124, all other compounds were tested in a single dose response study.
# Cohen’s d values of >0.2, >0.5 and >0.8 are described using the conventions of small, medium, and large effects, respectively.
# [2] = test system: cynomolgus monkeys; experiment: Scopolamine dose-response on CANTAB vsPAL task performance
# Text: Thirteen experimentally naïve male cynomolgus monkeys (Macaca Fasicularis; 3–5 years of age; 5.0–7.5 kg at the beginning of the study) served as subjects. Subjects were housed in pairs, separated during testing (Monday through Friday) and re-paired after feeding in the afternoon. Subjects were fed standard monkey chow (Harlan Teklad Global 20% protein Primate Diet 2050) in sufficient quantities to ensure normal growth while maintaining sufficient motivation to perform the cognitive testing [30]. Water was continuously available except during behavioral testing. Fresh fruit, toys and foraging devices were routinely provided in the monkey colony rooms.
# For behavioral testing subjects were seated comfortably in restraint chairs (Primate Products, Immokalee, FL), and placed in individual, sound attenuated chambers (Med-Associates, St. Albans, VT), equipped with lights, a white noise generator and a monitoring camera. A touch-sensitive computer monitor was within easy reach and session events were controlled by a Monkey CANTAB test station; (Lafayette Instruments, Lafayette, IN) and Whisker Control [45]. Following correct responses, a dispenser delivered 190 mg banana-flavored pellets (Bioserv, Frenchtown PA).
# Ten subjects were trained to perform the CANTAB vsPAL test as previously described [38, 46]. Briefly, the test required the animal to associate a stimulus (abstract shape) with a given spatial location on the computer screen (one of the four corners; S1 Fig). Ten trials each of increasing difficulty (2-, 3- or 4- stimuli) were presented. Trials began with the ‘sample phase’ where stimuli are presented and touched sequentially in their respective locations with a 1 sec delay between stimuli. Following 5 sec where the screen was blank, the choice phase began. The same stimulus was presented in all four corners of the screen for all difficulty levels. […] After a 1 sec screen blank another stimulus was presented in all four corners. If the animal touched the correct location for all shapes in the choice phase on the first attempt the trial was recorded as ‘correct on the initial attempt’. […] The same trial could be repeated up to 5 additional times.
# If the animal learned the sequence by the 6th attempt, the trial was recorded as ‘eventual correct’, or ‘incorrect’ if not. […] Additional measures were the percent completion (the proportion of trials on which both sample and choice responses were made), and response latency (time from sample onset to the screen touch in the choice phase, averaged across difficulty conditions).
# Drug testing was conducted on Mondays and Thursdays. An additional baseline session was conducted on Tuesdays. […] Additional animals were included in later studies as their performance improved.
# There was a washout period of at least 2 weeks between studies.
# Accuracy measures (i.e. percent initially correct and percent eventually correct) were analyzed with repeated measures analysis of variance (RM-ANOVA) with the two within-subject factors of difficulty (mean of number of stimuli per trial and overall mean) and treatment. Latencies to respond in all choice phases and percent task completed for the entire session were analyzed by one way RM ANOVA. […] Statistical tests were performed using OriginPro v 9.1 (OriginLab Co., Northampton, MA). Missing data were filled with the mean of the respective cell to enable RM ANOVA computation.
# [3] = Average Individualized Scopolamine (0.0045-0.0067 mg/kg) + Vehicle, individual animals
# [4] = Average Individualized Scopolamine + Vehicle, MEAN of 8 animals
# [5] = Average Individualized Scopolamine + Vehicle, group MEAN
# [6] = Average Individualized Scopolamine + Vehicle, group MEAN of 6 animals
# [7] = EVP DRC 2, Average Individualized Scopolamine + Vehicle, group MEAN of 7 animals
# [8] = Scopolamine 0.003 mg/kg, i.m., MEAN
# [9] = Scopolamine 0.003 mg/kg, i.m., individual animals
# [10] = Scopolamine 0.0056 mg/kg, i.m., MEAN
# [11] = Scopolamine 0.0056 mg/kg, i.m., individual animals
# [12] = Scopolamine 0.01 mg/kg i.m., MEAN
# [13] = Scopolamine 0.01 mg/kg i.m., individual animals
compound,measurement,setting,value
"CN1[C@@H]2C[C@@H](OC(=O)[C@H](CO)c3ccccc3)C[C@H]1[C@@H]1O[C@@H]12 [Scopolamine, Scopolamine HCl]","scopolamine impairment: difference between vehicle+vehicle and vehicle+scopolamine, % correct eventual",[1]; donepezil study,49.4%
same,"scopolamine impairment: difference between vehicle+vehicle and vehicle+scopolamine, % correct eventual",[1]; first EVP-6124 study,20.5%
same,% Completion,[1]; [3],57.3% and 62.4% and 94.5% and 85.3% and 87.0% and 81.6%
same,Average Response Latency,[1]; [3],1943.4 ms and 2791.5 ms and 2008.6 ms and 2389.3 ms and 2808.7 ms and 2502.8 ms
same,"Eventual Correct, 2 Stimuli",[1]; [3],90.0% and 100.0% and 95.0% and 97.5%
same,"Eventual Correct, 3 Stimuli",[1]; [3],65.7% and 66.7% and 90.0%
same,"Eventual Correct, 4 Stimuli",[1]; [3],36.7% and 32.2% and 47.1% and 63.3% and 32.5% and 69.2%
same,"Eventual Correct, Overall Mean % Correct",[1]; [3],66.2% and 66.3% and 73.2% and 84.4% and 71.7% and 85.6%
same,"Initial Correct, 3 Stimuli",[1]; [3],40.0% and 47.5% and 30.0% and 42.5% and 60.0%
same,"Initial Correct, 4 Stimuli",[1]; [3],16.7% and 22.5% and 20.0%
same,"Initial Correct, Overall Mean % Correct",[1]; [3],53.1% and 56.9% and 66.9%
same,"Initial correct, 2 Stimuli",[1]; [3],60.0% and 95.0% and 70.0% and 87.5%
same,Average Response Latency (Avg Rsp Lat),[1]; [4],2342.3 ms
same,"Eventual Correct, 2 Stimuli",[1]; [4],98.1%
same,"Eventual Correct, 4 Stimuli",[1]; [4],50.3%
same,"Eventual Correct, Overall Mean % Correct",[1]; [4],76.1%
same,"Initial Correct, 3 Stimuli",[1]; [4],46.2%
same,"Initial Correct, 4 Stimuli",[1]; [4],19.5%
same,"Initial correct, 2 Stimuli",[1]; [4],84.3%
same,% Completion,[1]; [5],83.8%
same,Average Response Latency (Avg rsp lat),[1]; [5],1934.6 ms
same,"Eventual Correct, 2 Stimuli",[1]; [5],99.7%
same,"Eventual Correct, 3 Stimuli",[1]; [5],98.0%
same,"Eventual Correct, Overall Mean % Correct",[1]; [5],92.3%
same,"Initial Correct, 3 Stimuli",[1]; [5],70.0%
same,"Initial Correct, Overall Mean % Correct",[1]; [5],65.4%
same,"Initial correct, 2 Stimuli",[1]; [5],87.2%
same,% Completion,[1]; [6],78.0%
same,Average Response Latency,[1]; [6],2407.4 ms
same,"Eventual Correct, 2 Stimuli",[1]; [6],97.1%
same,"Eventual Correct, 4 Stimuli",[1]; [6],46.8%
same,"Eventual Correct, Overall Mean % Correct",[1]; [6],74.6%
same,"Initial Correct, 3 Stimuli",[1]; [6],49.2%
same,Average Response Latency (Avg rsp lat),[1]; [7],2021.60 ms
same,"Eventual Correct, 2 Stimuli",[1]; [7],99.5%
same,"Eventual Correct, 3 Stimuli",[1]; [7],95.7%
same,"Eventual Correct, 4 Stimuli",[1]; [7],65.7%
same,"Eventual Correct, Overall Mean % Correct",[1]; [7],87.7%
same,"Initial Correct, 3 Stimuli",[1]; [7],66.2%
same,"Initial Correct, 4 Stimuli",[1]; [7],34.6%
same,"Initial Correct, Overall Mean % Correct",[1]; [7],64.9%
same,"Initial correct, 2 Stimuli",[1]; [7],91.9%
same,"Percent Correct on Initial Attempt (SEM), 2 stimuli",[1]; BMS-933043 study,89.6% (1.8%)
same,"Percent Correct on Initial Attempt (SEM), 3 stimuli",[1]; BMS-933043 study,67.0% (5.0%)
same,"Percent Correct on Initial Attempt (SEM), 4 stimuli",[1]; BMS-933043 study,37.3% (7.4%) ††
same,"Percent Correct on Initial Attempt (SEM), 2 stimuli",[1]; EVP-6124 study 1,87.3% (4.0%)
same,"Percent Correct on Initial Attempt (SEM), 3 stimuli",[1]; EVP-6124 study 1,70.0% (3.4%) ††
same,"Percent Correct on Initial Attempt (SEM), 4 stimuli",[1]; EVP-6124 study 1,38.8% (4.0%) ††
same,"Percent Correct on Initial Attempt (SEM), 2 stimuli",[1]; EVP-6124 study 2,91.9% (3.6%)
same,"Percent Correct on Initial Attempt (SEM), 3 stimuli",[1]; EVP-6124 study 2,66.2% (7.6%) †
same,"Percent Correct on Initial Attempt (SEM), 4 stimuli",[1]; EVP-6124 study 2,34.6% (4.2%) ††
same,"Percent Correct on Initial Attempt (SEM), 2 stimuli",[1]; RG3487 study,84.3% (2.8%)
same,"Percent Correct on Initial Attempt (SEM), 3 stimuli",[1]; RG3487 study,46.2% (8.0%) ††
same,"Percent Correct on Initial Attempt (SEM), 4 stimuli",[1]; RG3487 study,19.5% (4.9%) ††
same,"Percent Correct on Initial Attempt (SEM), 2 stimuli",[1]; donepezil study,79.6% (5.3%)
same,"Percent Correct on Initial Attempt (SEM), 3 stimuli",[1]; donepezil study,49.2% (6.5%) †
same,"Percent Correct on Initial Attempt (SEM), 4 stimuli",[1]; donepezil study,25.8% (4.5%) ††
same,mean (cohen's d calculations),"[1]; scop+vehicle, donepezil study",46.8
same,mean (cohen's d calculations),"[1]; veh+scop, BMS-933043 study",65.7
same,mean (cohen's d calculations),"[1]; vehicle+scop, EVP-6124 study 2",65.7
same,"Eventual Correct, 2 Stimuli",[2]; [8],100.0%
same,"Eventual Correct, 3 Stimuli",[2]; [8],100.0%
same,"Eventual Correct, 4 Stimuli",[2]; [8],90.0%
same,"Eventual Correct, Overall Mean % Correct",[2]; [8],96.7%
same,"Initial Correct, 3 Stimuli",[2]; [8],68.7%
same,"Initial Correct, 4 Stimuli",[2]; [8],57.5%
same,"Initial Correct, Overall Mean % Correct",[2]; [8],74.2%
same,"Initial correct, 2 Stimuli",[2]; [8],96.3%
same,% Completion,[2]; [9],63.0% and 97.0% and 100.0% and 84.0%
same,"Average Response Latency, ms (Avg Rsp Lat)",[2]; [9],6153.3 ms and 1831.0 ms and 1549.1 ms and 1787.2 ms and 2129.2 ms and 2342.9 ms and 2289.1 ms and 1548.2 ms
same,"Eventual Correct, 2 Stimuli",[2]; [9],100.0%
same,"Eventual Correct, 3 Stimuli",[2]; [9],100.0%
same,"Eventual Correct, 4 Stimuli",[2]; [9],90.0% and 100.0%
same,"Eventual Correct, Overall Mean % Correct",[2]; [9],93.3% and 96.7% and 100.0%
same,"Initial Correct, 3 Stimuli",[2]; [9],70.0% and 100.0% and 40.0% and 60.0%
same,"Initial Correct, 4 Stimuli",[2]; [9],30.0% and 70.0% and 100.0% and 50.0% and 60.0%
same,"Initial Correct, Overall Mean % Correct",[2]; [9],63.3% and 100.0% and 73.3% and 66.7% and 70.0% and 76.7%
same,"Initial correct, 2 Stimuli",[2]; [9],90.0% and 100.0%
same,"Eventual Correct, 2 Stimuli",[2]; [10],95.0%
same,"Eventual Correct, 3 Stimuli",[2]; [10],84.3%
same,"Eventual Correct, 4 Stimuli",[2]; [10],51.1%
same,"Eventual Correct, Overall Mean % Correct",[2]; [10],76.8%
same,"Initial Correct, 3 Stimuli",[2]; [10],54.3%
same,"Initial Correct, 4 Stimuli",[2]; [10],32.8%
same,% Completion,[2]; [11],21.0% and 62.0% and 51.0% and 97.0% and 88.0% and 91.0% and 34.5%
same,"Average Response Latency, ms (Avg Rsp Lat)",[2]; [11],1881.3 ms and 2302.7 ms and 2706.5 ms and 2004.6 ms and 2231.8 ms and 2896.7 ms and 2108.4 ms and 1817.8 ms
same,"Eventual Correct, 2 Stimuli",[2]; [11],60.0% and 100.0%
same,"Eventual Correct, 3 Stimuli",[2]; [11],100.0% and 50.0% and 90.0% and 70.0%
same,"Eventual Correct, 4 Stimuli",[2]; [11],50.0% and 16.7% and 70.0% and 0.0% and 90.0%
same,"Eventual Correct, Overall Mean % Correct",[2]; [11],83.3% and 55.6% and 86.7% and 90.0% and 56.7% and 96.7%
same,"Initial Correct, 3 Stimuli",[2]; [11],70.0% and 40.0% and 20.0% and 60.0% and 50.0%
same,"Initial Correct, 4 Stimuli",[2]; [11],30.0% and 16.7% and 50.0% and 0.0% and 60.0%
same,"Initial Correct, Overall Mean % Correct",[2]; [11],26.0% and 63.3% and 76.7% and 53.3%
same,"Initial correct, 2 Stimuli",[2]; [11],50.0% and 90.0% and 100.0%
same,"Eventual Correct, 2 Stimuli",[2]; [12],96.3%
same,"Eventual Correct, 4 Stimuli",[2]; [12],36.8%
same,"Eventual Correct, Overall Mean % Correct",[2]; [12],68.5%
same,"Initial Correct, 3 Stimuli",[2]; [12],47.8%
same,"Initial Correct, 4 Stimuli",[2]; [12],20.1%
same,% Completion,[2]; [13],63.6% and 78.0% and 52.6% and 100.0% and 43.5% and 50.8% and 31.0%
same,"Average Response Latency, ms (Avg Rsp Lat)",[2]; [13],3290.4 ms and 1872.3 ms and 1904.8 ms and 2135.7 ms and 2272.7 ms and 2295.1 ms and 2067.4 ms and 1369.7 ms
same,"Eventual Correct, 2 Stimuli",[2]; [13],100.0% and 90.0% and 80.0%
same,"Eventual Correct, 3 Stimuli",[2]; [13],100.0% and 60.0% and 90.0% and 14.3%
same,"Eventual Correct, 4 Stimuli",[2]; [13],44.4% and 25.0% and 0.0%
same,"Eventual Correct, Overall Mean % Correct",[2]; [13],81.5% and 75.0% and 53.3% and 89.3%
same,"Initial Correct, 3 Stimuli",[2]; [13],50.0% and 70.0% and 90.0% and 30.0% and 0.0% and 12.5%
same,"Initial Correct, 4 Stimuli",[2]; [13],33.3% and 25.0% and 0.0% and 22.2%
same,"Initial Correct, Overall Mean % Correct",[2]; [13],68.3% and 36.7% and 60.7% and 26.7% and 20.9% and 53.4%
same,"Initial correct, 2 Stimuli",[2]; [13],90.0% and 60.0% and 30.0%
